Measured values reported in article PMC11249637, “Interaction of the Atypical Tetracyclines Chelocardin and Amidochelocardin with Renal Drug Transporters” (ACS Pharmacology & Translational Science, 2024).

What was measured:
[1] = target: T1, mOct1 (Mus musculus, UniProt O08966); experiment: Three-point uptake (substrate assessment) in mOct1-overexpressing HEK293 cells; assay type: in vitro ADME
T1 construct: expressed in transfected cells; host or cells: HEK293
T1 sequence (O08966 1-556): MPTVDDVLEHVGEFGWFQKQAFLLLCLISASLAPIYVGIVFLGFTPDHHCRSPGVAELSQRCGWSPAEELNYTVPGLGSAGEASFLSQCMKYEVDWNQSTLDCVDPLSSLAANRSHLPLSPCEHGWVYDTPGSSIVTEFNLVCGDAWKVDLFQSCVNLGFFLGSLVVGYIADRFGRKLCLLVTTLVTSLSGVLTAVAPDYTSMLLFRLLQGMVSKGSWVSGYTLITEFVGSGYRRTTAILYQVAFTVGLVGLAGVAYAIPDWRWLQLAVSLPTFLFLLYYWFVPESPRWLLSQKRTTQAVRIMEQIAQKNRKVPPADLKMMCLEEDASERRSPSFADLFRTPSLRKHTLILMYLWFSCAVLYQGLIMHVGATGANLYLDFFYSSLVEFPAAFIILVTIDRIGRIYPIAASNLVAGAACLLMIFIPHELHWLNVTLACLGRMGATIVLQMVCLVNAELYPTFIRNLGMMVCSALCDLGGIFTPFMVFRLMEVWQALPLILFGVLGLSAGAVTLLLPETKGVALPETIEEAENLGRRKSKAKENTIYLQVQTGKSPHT
Description: (§1) This is important to gain a better understanding of the underlying mechanisms of secretion into urine. Therefore, we assessed the amount of compound taken up by the vector and transporter cells at three different concentrations (1, 10, and 100 μM for mOat1 and mOct1; 0.1, 1, and 10 μM for mOat3) and at two different incubation periods (1 and 5 min for mOat1 and mOct1; 5 and 10 min for mOat3).
(§2) The incubation buffer contained CHD and CDCHD in a final concentration of 1, 10, and 100 μM. After 1 and 5 min, the incubation was terminated. In addition, the probe inhibitor decynium22 (50 μM) was added in one concentration to 10 μM CHD and CDCHD, respectively, and after 1 and 5 min, the incubation was stopped. Inhibition of mOct1-mediated ^3H-MPP (10 μM) uptake by 50 μM decynium22 was performed as a control experiment. After 1 min, the incubation was terminated. All experiments were conducted in triplicate.
First, a calibration curve was prepared by spiking different concentrations of CHD and CDCHD into the cell matrix. Caffeine was used as an internal standard. In addition, quality control samples (QCs) were prepared for CHD and CDCHD in a cell matrix. The following extraction procedures were used: 300 μL of acetonitrile/water (1:1) is added to the cell pellet (sample or calibration/QC sample) for 15 min at 2000 rpm on an Eppendorf MixMate vortex mixer. 10 μL of this extracted sample is used for further analysis. 10 μL of the extracted cell sample is further extracted with 25 μL of a mixture of methanol/acetonitrile (2:1) containing 12.5 ng/mL caffeine as an internal standard (on ice) for 5 min at 2000 rpm on an Eppendorf MixMate vortex mixer. Then, samples were spun down at 15,870 × g for 10 min. Supernatants were transferred to standard HPLC glass vials. Samples were analyzed using an Agilent 1290 Infinity II HPLC system coupled to an AB Sciex QTrap6500plus mass spectrometer. LC conditions were as follows: column: Agilent Zorbax Eclipse Plus C18, 50 × 2.1 mm, 1.8 μm; temperature: 30°C; injection volume: 5 μL per sample; flow rate: 700 μL/min. Samples were run under the following conditions. Solvents: A: 100% water +0.1% formic acid; solvent B: 100% acetonitrile +0.1% formic acid. The gradient for CDCHD was as follows: 99% A at 0 min, 99% A until 0.1 min, 99–90% A from 0.1 to 1.0 min, 90–50% A from 1.0 to 2.4 min, 50–35% A from 2.4 to 2.7 min, 35–0% A from 2.7 until 4.5 min, 0% A until 5.5 min, 0–99% from 5.5 to 5.7 min, 99% A until 6.0 min. The gradient for CHD was as follows: 99% A at 0 min, 99% A until 0.1 min, 99–90% A from 0.1 to 1.0 min, 90–55% A from 1.0 to 2.3 min, 55–40% A from 2.3 to 2.5 min, 40–0% A from 2.5 until 4.5 min, 0% A until 5.5 min, 0–99% from 5.5 to 5.7 min, 99% A until 6.0 min. Mass transitions are depicted in Table S2.
For statistical testing of differences in uptake ratio or for the inhibitory effect, an ordinary one-way ANOVA test was performed using GraphPad Prism 9.5.1 software. For statistical testing of difference in uptake on vector- or transporter-overexpressing cells, an ordinary two-way ANOVA test was performed using GraphPad Prism 9.5.1 software. Michaelis–Menten kinetics were determined using the Michaelis–Menten algorithm of GraphPad Prism 9.5.1 software. Image resolution was adjusted by using GIMP software.

[2] = target: T2, mOat1 (Mus musculus, UniProt Q8VC69); experiment: Three-point uptake (substrate assessment) in mOat1-overexpressing HEK293 cells; assay type: in vitro ADME; details: 10 μM compound, 100 μM probenecid, 1 and 5 min
T2 construct: expressed in transfected cells; host or cells: HEK293
T2 sequence (Q8VC69 1-545): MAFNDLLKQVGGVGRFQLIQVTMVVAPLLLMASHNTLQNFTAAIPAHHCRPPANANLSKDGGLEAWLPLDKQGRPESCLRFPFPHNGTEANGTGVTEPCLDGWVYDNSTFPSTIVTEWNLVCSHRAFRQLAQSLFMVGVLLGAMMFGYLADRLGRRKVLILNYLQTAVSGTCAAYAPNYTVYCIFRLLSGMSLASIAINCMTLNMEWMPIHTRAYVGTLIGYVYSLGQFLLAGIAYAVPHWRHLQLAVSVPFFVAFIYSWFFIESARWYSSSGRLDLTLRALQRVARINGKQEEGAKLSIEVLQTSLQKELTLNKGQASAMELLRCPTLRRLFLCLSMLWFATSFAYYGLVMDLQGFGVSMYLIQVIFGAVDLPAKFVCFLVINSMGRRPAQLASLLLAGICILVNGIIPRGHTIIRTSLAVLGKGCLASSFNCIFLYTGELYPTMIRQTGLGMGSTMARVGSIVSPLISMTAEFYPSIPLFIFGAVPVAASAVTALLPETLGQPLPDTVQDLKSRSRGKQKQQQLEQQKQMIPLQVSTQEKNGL
Description: as §1
as §2, with “probenecid (100” for “decynium22 (50”, “mOat1-mediated ^3H-PAH” for “mOct1-mediated ^3H-MPP”, “100” for “50”, “probenecid” for “decynium22”, “All experiments were conducted in triplicate.” left out
First, a calibration curve was prepared by spiking different concentrations of CHD and CDCHD into the cell matrix. […] Samples were analyzed using an Agilent 1290 Infinity II HPLC system coupled to an AB Sciex QTrap6500plus mass spectrometer. […]
For statistical testing of differences in uptake ratio or for the inhibitory effect, an ordinary one-way ANOVA test was performed using GraphPad Prism 9.5.1 software. […] Michaelis–Menten kinetics were determined using the Michaelis–Menten algorithm of GraphPad Prism 9.5.1 software. […]

[3] = set-up: method as in PMID 38047701; details: 15 mg/kg IV; up to 8 h post administration; cited from earlier work

Cc1ccc2c(C)c3c(c(O)c2c1O)C(=O)[C@@]1(O)C(=O)C(C(N)=O)=C(O)[C@@H](N)[C@H]1C3 [CDCHD, amidochelocardin]
substrate of mOct1 (in words) [1]: is not a substrate | uptake ratio (cells without vs with decynium22), mOct1 ([1]; 10 μM compound, 50 μM decynium22, 1 and 5 min): 1 | mOct1: Vmax ([1]; Michaelis–Menten fit, 1, 10 and 100 μM): 15.0 nM/min

CC(=O)C1=C(O)[C@@H](N)[C@H]2Cc3c(c(O)c4c(O)c(C)ccc4c3C)C(=O)[C@@]2(O)C1=O [CHD, chelocardin]
uptake ratio (cells without vs with probenecid), mOat1 [2]: < 1 | urine levels of CHD compared to CDCHD [3]: 10 fold | substrate of mOct1 (in words) [1]: is a substrate | less uptake in the presence of the specific inhibitor decynium22, mOct1 ([1]; 10 μM compound, 50 μM decynium22, 5 min): around 50%
